Reference: PMC10447463, “Data-mining unveils structure–property–activity correlation of viral infectivity enhancing self-assembling peptides” (Nature Communications, 2023)
Read-outs that look alike come from different tables or passages of the source.

How the values were obtained:
[1] = type: physicochemical; conditions: for ThT Cat. / ThT-Fluorescence (categorical): ThT-active if fluorescence at least twice the control
Summary of the method: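 Preformed peptide fibrils (1 mg/mL) mixed with 50 µM ThT in PBS, 15 min at RT, fluorescence ex 440/em 488 nm versus PBS blank, triplicates. Zeta potential: peptides at 1 mg/mL in PBS pH 7.4, aged 1 d at RT, diluted in 1 mM KCl, Smoluchowski from electrophoretic mobility.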

[2] = Zeta-potential measurement; type: physicochemical; conditions: for Zeta pot. / mV: 1 mg/mL in PBS pH 7.4 from 10 mg/mL DMSO stock, 1 d RT, 60 µL diluted in 600 µL 1 mM KCl, Zetasizer Nano ZS, Smoluchowski, mean of triplicate; for Zeta-Potential / mV: Figure 6C; for Zeta-pot. / mV: zeta potential of peptide, Fig S15 source data
Summary of the method: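 Peptides from a 10 mg/mL DMSO stock were brought to 1 mg/mL in PBS (pH 7.4) and aged 1 d at RT. Just before reading, they were diluted into 1 mM aqueous KCl, and zeta potential was calculated from electrophoretic mobility with the Smoluchowski formula.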

[3] = ThT fluorescence relative to blank, blank = 42.1851851851852
[4] = ThT fluorescence relative to blank (42.1851851851852 a.u.)
[5] = relative to blank 42.1851851851852 a.u.

Substance	Tht category (> 1.5 to blank = +) ([1]; category 1/0)	Zeta category ( +1 = if > 4 mV;-1 = if < -4 mV; 0 = -4mV to 4 mV) [2]	Zeta-pot. / mV [2]	Tht rel to blank (42.1851851851852) [1, 5]	Zeta Pot. / mV ([2]; mean, Std in separate column)	also measured
KAKLTCT	–	–	–	–	–	ThT Cat. / ThT-Fluorescence (categorical) [1]: 0 (ThT-inactive (N-Fold <2)); Zeta pot. / mV [2]: -2.2992 mV; Zeta-Potential / mV ([2]; mean): -2.2992 mV
KAKQAANMWQ [JG6]	0 (ThT-inactive (N-Fold <2))	-1 (-1 = if < -4 mV)	-12.9 mV	–	–	Tht rel to blank (42.1851851851852) [1, 3]: 1.208; Zeta Pot. / mV [2]: -12.9 mV
KAQCTLP	–	–	–	–	–	ThT Cat. / ThT-Fluorescence (categorical) [1]: 0 (ThT-inactive (N-Fold <2)); Zeta pot. / mV [2]: -8.503 mV; Zeta-Potential / mV ([2]; mean): -8.503 mV
KFKFQFF [TG6]	1 (ThT. Cat is 1, if Rel. ThT >2)	0 (0 = -4mV to 4 mV)	6.903 mV	2.58	–	Tht rel to blank (42.1851851851852) [1, 4]: 2.58; Tht rel to blank (42.1851851851852) [1, 3]: 2.58
KFKFQFFF [TG12]	1 (ThT. Cat is 1, if Rel. ThT >2)	1 (+1 = if > 4 mV)	13.27 mV	2.58	13.27 mV	Tht rel to blank (42.1851851851852) [1, 4]: 2.58; Tht rel to blank (42.1851851851852) [1, 3]: 2.58; Zeta Pot. / mV [2]: 13.27 mV
KFKFQFN [BL7]	0 (ThT-inactive (N-Fold <2))	1 (+1 = if > 4 mV)	12.7 mV	1.056	12.7 mV	–
KFKFQFNMW [BL5 / KB13]	0 (ThT-inactive (N-Fold <2))	1 (+1 = if > 4 mV)	22.6 mV	1.342	22.6 mV	–
KFKQFFINMWQ [VH14]	0 (ThT-inactive (N-Fold <2))	1 (+1 = if > 4 mV)	7.99 mV	–	–	Tht rel to blank (42.1851851851852) [1, 3]: 1.085; Zeta Pot. / mV [2]: 7.99 mV
KFQFNMW	–	–	–	–	–	ThT Cat. / ThT-Fluorescence (categorical) [1]: 0 (ThT-inactive (N-Fold <2)); Zeta-Potential / mV ([2]; mean): 8.763 mV
KIKIKIKI [TM13]	1 (ThT. Cat is 1, if Rel. ThT >2)	1 (+1 = if > 4 mV)	5.46 mV	3.325	5.46 mV	–
KIKIKIKIWW [TM21]	1 (ThT. Cat is 1, if Rel. ThT >2)	1 (+1 = if > 4 mV)	15.4 mV	3.538	15.4 mV	–
KIKIKIKIWWWW [TM12]	1 (ThT. Cat is 1, if Rel. ThT >2)	1 (+1 = if > 4 mV)	15.2 mV	2.303	15.2 mV	–
KIKIQIAMWQ [JR4]	–	–	11.3 mV	–	–	Tht category (> 1.5 to blank = +) ([1]; FigS26): 1 (Tht category (> 1.5 to blank = +)); Zeta category ( +1 = if > 4 mV;-1 = if < -4 mV; 0 = -4mV to 4 mV) ([2]; FigS26): 1 (+1 = if > 4 mV)
KIKIQII [TG1 / (KM4)]	0 (ThT-inactive (N-Fold <2))	1 (+1 = if > 4 mV)	5.61 mV	1.392	5.61 mV	Tht rel to blank (42.1851851851852) [1, 4]: 1.392; Tht rel to blank (42.1851851851852) [1, 3]: 1.392; Zeta Pot. / mV [2]: 5.61 mV
KIKIQIII [TG7]	1 (ThT. Cat is 1, if Rel. ThT >2)	1 (+1 = if > 4 mV)	19.8 mV	2.287	19.8 mV	Tht rel to blank (42.1851851851852) [1, 4]: 2.287; Tht rel to blank (42.1851851851852) [1, 3]: 2.287; Zeta Pot. / mV [2]: 19.8 mV
KIKIQIMQWN [VH16]	–	–	9.44 mV	–	–	Tht category (> 1.5 to blank = +) ([1]; FigS26): 0 (Tht category (> 1.5 to blank = +)); Zeta category ( +1 = if > 4 mV;-1 = if < -4 mV; 0 = -4mV to 4 mV) ([2]; FigS26): 1 (+1 = if > 4 mV)

Substance	Tht category (> 1.5 to blank = +) ([1]; category 1/0)	Zeta category ( +1 = if > 4 mV;-1 = if < -4 mV; 0 = -4mV to 4 mV) [2]	Zeta-pot. / mV [2]	Tht rel to blank (42.1851851851852) [1, 5]	Zeta Pot. / mV ([2]; mean, Std in separate column)	also measured
KIKIQIMWNQ [VH15]	–	–	2.96 mV	–	–	Tht category (> 1.5 to blank = +) ([1]; FigS26): 0 (Tht category (> 1.5 to blank = +)); Zeta category ( +1 = if > 4 mV;-1 = if < -4 mV; 0 = -4mV to 4 mV) ([2]; FigS26): 0 (0 = -4mV to 4 mV)
KIKIQIN [JGB3]	0 (ThT-inactive (N-Fold <2))	0 (0 = -4mV to 4 mV)	3.34 mV	1.784	3.34 mV	–
KIKIQINAWQ [JR3-II]	–	–	13.1 mV	–	–	Tht category (> 1.5 to blank = +) ([1]; FigS26): 1 (Tht category (> 1.5 to blank = +)); Zeta category ( +1 = if > 4 mV;-1 = if < -4 mV; 0 = -4mV to 4 mV) ([2]; FigS26): 1 (+1 = if > 4 mV)
KIKIQINMAQ [JR2]	–	–	3.07 mV	–	–	Tht category (> 1.5 to blank = +) ([1]; FigS26): 0 (Tht category (> 1.5 to blank = +)); Zeta category ( +1 = if > 4 mV;-1 = if < -4 mV; 0 = -4mV to 4 mV) ([2]; FigS26): 0 (0 = -4mV to 4 mV)
KIKIQINMWA [JR1]	–	–	14.7 mV	–	–	Tht category (> 1.5 to blank = +) ([1]; FigS26): 0 (Tht category (> 1.5 to blank = +)); Zeta category ( +1 = if > 4 mV;-1 = if < -4 mV; 0 = -4mV to 4 mV) ([2]; FigS26): 1 (+1 = if > 4 mV)
KIKIQINMWQRGD [VH17-II]	0 (ThT-inactive (N-Fold <2))	0 (0 = -4mV to 4 mV)	1.69 mV	1.548	1.69 mV	Tht category (> 1.5 to blank = +) ([1]; FigS26): 0 (Tht category (> 1.5 to blank = +))
KIKIQINMWWQ [VH11]	0 (ThT-inactive (N-Fold <2))	1 (+1 = if > 4 mV)	11.8 mV	1.314	11.8 mV	–
KIKIQINMWWWQ [VH12]	0 (ThT-inactive (N-Fold <2))	1 (+1 = if > 4 mV)	9.45 mV	1.301	9.45 mV	–
KIKIQIRGD [MG6]	–	–	6.43 mV	–	–	Tht category (> 1.5 to blank = +) ([1]; FigS26): 1 (Tht category (> 1.5 to blank = +)); Zeta category ( +1 = if > 4 mV;-1 = if < -4 mV; 0 = -4mV to 4 mV) ([2]; FigS26): 1 (+1 = if > 4 mV)
KIKIQIW [TM69]	1 (ThT. Cat is 1, if Rel. ThT >2)	1 (+1 = if > 4 mV)	12.5 mV	2.047	12.5 mV	Tht rel to blank (42.1851851851852) [1, 3]: 2.047; Zeta Pot. / mV [2]: 12.5 mV
KIKIWIW	–	–	–	–	–	ThT Cat. / ThT-Fluorescence (categorical) [1]: 0 (ThT-inactive (N-Fold <2)); Zeta-Potential / mV ([2]; mean): 17.23 mV
KIKQIIN [JGA3]	–	-1 (-1 = if < -4 mV)	-11.7 mV	–	-11.7 mV	Tht rel to blank (42.1851851851852) [1, 4]: 1.148
KIWIWIW	–	–	–	–	–	ThT Cat. / ThT-Fluorescence (categorical) [1]: 1 (ThT. Cat is 1, if Rel. ThT >2); Zeta-Potential / mV ([2]; mean): 11.33 mV
KLKLKLQL [TG16]	0 (ThT-inactive (N-Fold <2))	1 (+1 = if > 4 mV)	8.39 mV	–	–	Tht rel to blank (42.1851851851852) [1, 3]: 1.572; Zeta Pot. / mV [2]: 8.39 mV
KLKLTLT	–	–	–	–	–	ThT Cat. / ThT-Fluorescence (categorical) [1]: 1 (ThT. Cat is 1, if Rel. ThT >2); Zeta pot. / mV [2]: 1.713 mV; Zeta-Potential / mV ([2]; mean): 1.713 mV
